From US20070244173A1, “6,7-Dihydroxy-8-Phenyl-3,6,7,8-Tetrahydro-Chromeno [7,8-d] Imidazole Derivatives and Their Use as Gastric Acid Secretion Inhibitors” (Altana Pharma AG, priority 2004, published 2007) come the findings set out here.

In data set [1] the test system is pentagastrin-stimulated acid secretion of the perfused rat stomach. Briefly: Secretion-inhibiting action on the perfused rat stomach (pentagastrin-stimulated acid secretion, intraduodenal administration in vivo). As to conditions: iv, dose 2 μmol/kg i.d., anesthetized female CD rat, pentagastrin 1 μg/kg i.v. infusion. The source says: Testing of the Secretion-Inhibiting Action on the Perfused Rat Stomach
In Table A which follows, the influence of the compounds of the formula 1 according to the invention on the pentagastrin-stimulated acid secretion of the perfused rat stomach after intraduodenal administration in vivo is shown.
The abdomen of anesthetized rats (CD rat, female, 200-250 g; 1.5 g/kg i.m. urethane) was opened after tracheotomy by a median upper abdominal incision and a PVC catheter was fixed transorally in the esophagus and another via the pylorus such that the ends of the tubes just projected into the gastric lumen. The catheter leading from the pylorus led outward into the right abdominal wall through a side opening.
After thorough rinsing (about 50-100 ml), warm (37° C.) physiological NaCl solution was continuously passed through the stomach (0.5 ml/min, pH 6.8-6.9; Braun-Unita I). The pH (pH meter 632, glass electrode EA 147; φ=5 mm, Metrohm) and, by titration with a freshly prepared 0.01N NaOH solution to pH 7 (Dosimat 665 Metrohm), the secreted HCl were determined in the effluent in each case collected at an interval of 15 minutes.
The gastric secretion was stimulated by continuous infusion of […] (=1.65 ml/h) of i.v. pentagastrin (left femoral vein) about 30 min after the end of the operation (i.e. after determination of 2 preliminary fractions). The substances to be tested were administered intraduodenally in a 2.5 ml/kg liquid volume 60 min after the start of the continuous pentagastrin infusion. The body temperature of the animals was kept at a constant 37.8-38° C. by infrared irradiation and heat pads (automatic, stepless control by means of a rectal temperature sensor).

By inhibition in vivo is commonly meant how much of the control response was suppressed. A lower inhibition in vivo goes with a weak effect. Broadly, the melting point is the temperature, or range, at which the solid turns liquid. Take `Cc1nc2c3c(ccc2[nH]1)[C@H]1OCCO[C@@H]1[C@@H](c1ccccc1)O3` [Example 16, (5S,6R,10R)-16-Methyl-6-phenyl-2,3,5,6,10,17-hexahydro-1,4,7-trioxa-15,17-diaza-cyclopenta[a]phenanthrene]: the melting point came out at 260 °C. In data set [1], the inhibition in vivo at 2 µmol/kg was above 50%. `COCCO[C@H]1c2ccc3c(nc(C)n3C3CC3)c2O[C@H](c2ccccc2)[C@H]1O` [Example 19, (6S,7S,8R)-3-Cyclopropyl-7-hydroxy-6-(2-methoxy-ethoxy)-2-methyl-8-phenyl-3,6,7,8-tetrahydro-chromeno[7,8-d]imidazole] displayed a melting point of 218 °C. The inhibition in vivo at 2 µmol/kg in data set [1] is above 50%. Taken in the same sequence, the figures for `Cc1nc2c3c(ccc2n1C)[C@@H](OCCF)[C@H](O)[C@@H](c1ccccc1)O3` [Example 5, (6R,7S,8R)-6-(2-Fluoro-ethoxy)-7-hydroxy-2,3-dimethyl-8-phenyl-3,6,7,8-tetrahydro-chromeno[7,8-d]imidazole] were 226 °C and above 50%. Taken in the same sequence, the figures for `C=CCn1c(C)nc2c3c(ccc21)[C@@H](OCCOC)[C@H](O)[C@@H](c1ccccc1)O3` [Example 11, (6R,7S,8R)-3Allyl-7-hydroxy-6-(2-methoxy-ethoxy)-2-methyl-8-phenyl-3,6,7,8-tetrahydro-chromeno[7,8-d]imidazole] were 79 °C and below 50%. In turn, `COCCO[C@@H]1c2ccc3[nH]c(C)nc3c2O[C@H](c2ccccc2)[C@H]1O` [Example 13, (6R,7S,8R)-7-Hydroxy-6-(2-methoxy-ethoxy)-2-methyl-8-phenyl-3,6,7,8-tetrahydro-chromeno[7,8-d]imidazole] yielded a melting point of 117 °C.

In the case of `COCCO[C@@H]1c2ccc3c(nc(C4CC4)n3C)c2O[C@H](c2ccccc2)[C@H]1O` [Example 21, (6R,7S,8R)-2-Cyclopropyl-7-hydroxy-6-(2-methoxy-ethoxy)-3-methyl-8-phenyl-3,6,7,8-tetrahydro-chromeno[7,8-d]imidazole], the melting point is 157 °C. Take `Cc1nc2c3c(ccc2n1C)[C@@H](O)[C@H](O)[C@@H](c1ccccc1)O3` [Example 3, (6R,7S,8R)-6,7-Dihydroxy-2,3-dimethyl-8-phenyl-3,6,7,8-tetrahydro-chromeno[7,8-d]imidazole]: the melting point is 262.5 °C. In data set [1], this molecule displayed an inhibition in vivo at 2 µmol/kg below 50%. Taken in the same sequence, the figures for `Cc1nc2c3c(ccc2n1C)[C@@H](OCC(F)F)[C@H](O)[C@@H](c1ccccc1)O3` [Example 9, (6R,7S,8R)-7-Hydroxy-6-(2,2-difluoro-ethoxy)-2,3-dimethyl-8-phenyl-3,6,7,8-tetrahydro-chromeno[7,8-d]imidazole] were 249 °C and above 50%.

`Cc1nc2c3c(ccc2[nH]1)[C@@H](O)[C@H](O)[C@@H](c1ccccc1)O3` [Example 10, (6R,7S,8R)-6,7-Dihydroxy-2-methyl-8-phenyl-3,6,7,8-tetrahydro-chromeno[7,8-d]imidazole]: the melting point was determined as 163 °C.

The molecule `COCCO[C@H]1c2ccc3c(nc(C4CC4)n3C)c2O[C@H](c2ccccc2)[C@H]1O` [Example 22, (6S,7S,8R)-2-Cyclopropyl-7-hydroxy-6-(2-methoxy-ethoxy)-3-methyl-8-phenyl-3,6,7,8-tetrahydro-chromeno[7,8-d]imidazole] gave a melting point of 133 °C. `COCCO[C@@H]1c2ccc3c(nc(C)n3C)c2O[C@H](c2ccccc2)[C@H]1O` [Example 1, (6R,7S,8R)-7-Hydroxy-6-(2-methoxy-ethoxy)-2,3-dimethyl-8-phenyl-3,6,7,8-tetrahydro-chromeno[7,8-d]imidazole]: the inhibition in vivo at 2 µmol/kg in data set [1] was above 50%.

The molecule `Cc1nc2c3c(ccc2n1C)[C@H]1OCCO[C@@H]1[C@@H](c1ccccc1)O3` [Example 6, (5S,6R,10R)-16,17-Dimethyl-6-phenyl-2,3,5,6,10,17-hexahydro-1,4,7-trioxa-15,17-diaza-cyclopenta[a]phenanthrene] returned a melting point of 307 °C. The inhibition in vivo at 2 µmol/kg in data set [1] was above 50%. Molecule `CC=Cn1c(C)nc2c3c(ccc21)[C@H]1OCCO[C@@H]1[C@@H](c1ccccc1)O3` [Example 15, (5S,6R,10R)-16-Methyl-6-phenyl-17-propenyl-2,3,5,6,10,17-hexahydro-1,4,7-trioxa-15,17-diaza-cyclopenta[a]phenanthrene] yielded a melting point of 213 °C. In data set [1], this molecule registered an inhibition in vivo at 2 µmol/kg above 50%. Molecule `COCCO[C@@H]1c2ccc3c(nc(C)n3C3CC3)c2O[C@H](c2ccccc2)[C@H]1O` [Example 18, (6R,7S,8R)-3-Cyclopropyl-7-hydroxy-6-(2-methoxy-ethoxy)-2-methyl-8-phenyl-3,6,7,8-tetrahydro-chromeno[7,8-d]imidazole] gave a melting point of 183 °C. In data set [1], this molecule yielded an inhibition in vivo at 2 µmol/kg below 50%. Taken in the same sequence, the figures for `CCO[C@@H]1c2ccc3c(nc(C)n3C)c2O[C@H](c2ccccc2)[C@H]1O` [Example 4, (6R,7S,8R)-6-Ethoxy-7-hydroxy-2,3-dimethyl-8-phenyl-3,6,7,8-tetrahydro-chromeno[7,8-d]imidazole] were 222 °C and above 50%.

In the case of `Cc1nc2c3c(ccc2n1C1CC1)[C@@H](O)[C@H](O)[C@@H](c1ccccc1)O3` [Example 17, (6R,7S,8R)-3-Cyclopropyl-6,7-dihydroxy-2-methyl-8-phenyl-3,6,7,8-tetrahydro-chromeno[7,8-d]imidazole], the inhibition in vivo at 2 µmol/kg in data set [1] is below 50%.

`COCCO[C@@H]1c2ccc3c(nc(C)n3C)c2O[C@H](c2ccccc2)[C@H]1OC(=O)COC` [Example 7, (6R,7S,8R)-7-(2-Methoxy-acetoxy)-6-(2-methoxy-ethoxy)-2,3-dimethyl-8-phenyl-3,6,7,8-tetrahydro-chromeno[7,8-d]imidazole] came in with a melting point of 200 °C. The inhibition in vivo at 2 µmol/kg in data set [1] was above 50%. As for `CC=Cn1c(C)nc2c3c(ccc21)[C@@H](OCCOC)[C@H](O)[C@@H](c1ccccc1)O3` [Example 12, (6R,7S,8R)-7-Hydroxy-6-(2-methoxy-ethoxy)-2-methyl-8-phenyl-3-propenyl-3,6,7,8-tetrahydro-chromeno[7,8-d]imidazole], the melting point was determined as 61 °C.

`COCCO[C@@H]1c2ccc3c(nc(C)n3C)c2O[C@H](c2ccccc2)[C@H]1OC(=O)CN(C)C` [Example 8, (6R,7S,8R)-7-(2-Dimethylamino-acetoxy)-6-(2-methoxy-ethoxy)-2,3-dimethyl-8-phenyl-3,6,7,8-tetrahydro-chromeno[7,8-d]imidazole] yielded a melting point of 175 °C. For the same molecule, in data set [1], the inhibition in vivo at 2 µmol/kg is above 50%. Taken in the same sequence, the figures for `COCCO[C@H]1c2ccc3c(nc(C)n3C)c2O[C@H](c2ccccc2)[C@H]1O` [Example 2, (6S,7S,8R)-7-Hydroxy-6-(2-methoxy-ethoxy)-2,3-dimethyl-8-phenyl-3,6,7,8-tetrahydro-chromeno[7,8-d]imidazole] were 163 °C and below 50%. Consider `C=CCn1c(C)nc2c3c(ccc21)[C@@H](OCCF)[C@H](O)[C@@H](c1ccccc1)O3` [Example 14, (6R,7S,8R)-3-Allyl-7-hydroxy-6-(2-fluoro-ethoxy)-2-methyl-8-phenyl-3,6,7,8-tetrahydro-chromeno[7,8-d]imidazole], for which the melting point was found to be 117 °C.
